Test [1] concerns NSCLC cells. Nature of the test: MTT cell viability assay, NSCLC cells overall. The class given is cell-based, Human. The procedure: Human NSCLC cell lines A549, H1437, H2087, H522, and HCC827 were obtained from the Korean Cell Line Bank (KCLB, Seoul, Korea). These cells were cultured in RPMI-1640 medium (Gibco, N.Y., USA) supplemented with 10% FBS (Gibco) and 1% penicillin-streptomycin (HyClone Laboratories, Logan, Utah, USA). All cell lines were cultured under standard conditions (5% CO2, humid environment, 37° C.). A549 cells were seeded at a density of 1×10^4 cells/well and H1437, H2087, H522, HCC827, and MRCS cells at a density of 2×10^4 cells/well in 96-well plates and were cultured until cells reach approximately 70-80% confluency. The NSCLC cells were treated with plant hormones for 48 hours. Stock solution of each plant hormone was diluted with culture medium, wherein concentrations of DMSO, water, methanol, and ethanol in the culture medium were below 1% (v/v). The half-maximal inhibitory concentration (IC50) was calculated using CompuSyn software (ComboSyn Inc., Paramus, N.J., USA).
The inhibitory effect of plant hormones and their derivatives was investigated on 5 NSCLC cell lines (A549, H1437, H2087, H522, and HCC827). The NSCLC cells were treated with ABA, Cor, ethephon, GR-24, IAA, KR, MJ, N6b, N6i, oTR, and SS-HCS at concentrations of 0.1, 0.5, 1, 5, 10, 50, and 100 μM. Cell viability and IC50 values for 48 hours were investigated by performing the MTT assay.

The test system of test [2] is p-ERK, ERK, p-AKT, AKT, cleaved caspase-3 in NSCLC tumor tissue. Nature of the test: Immunoblot analysis of NSCLC tumor tissue lysates. The note with it: FIG. 7. The class given is in vivo, nude mice (female, BALB/cSlc-nu/nu). How it is done:
The immunoblot analysis was carried out according to a previously described method. A549 cells (4×10^5) were grown to approximately 70-80% confluency and treated with oTR (5, 10, and 50 μM) for 48 hours. The cell lysates and tissue lysates were prepared and subjected to SDS-PAGE for immunoblotting with the respective antibodies. Anti-caspase-3 (9662), anti-p-AKT (4058), and anti-AKT (9272) antibodies were purchased from Cell Signaling Technology (Danvers, Mass., USA). Anti-ERK1/ERK2 (MAB1576) and anti-p-ERK1/ERK2 (AF1018) were purchased from R&D Systems (Minneapolis, Minn., USA). Anti-LC-III (NB100-2331) antibody was purchased from Novus Biologicals (Littleton, Colo., USA). Anti-β-actin (sc-47778) and anti-GAPDH (sc-47724) antibody was purchased from Santa Cruz Biotechnology (Santa Cruz, Calif., USA).

Setting [3] is: oTR-treated NSCLC tumor tissues.

The structures appear in SMILES notation.

On to `OC[C@H]1O[C@@H](n2cnc3c(NCc4ccccc4O)ncnc32)[C@H](O)[C@@H]1O` [oTR, ortho topolin riboside], for which the “viability of NSCLC cells” value in test [1] (48 hours of oTR treatment, FIG. 1) is “reduced”. Further, in test [1] (48 hours, MTT assay), the “IC50 values compared among all tested plant hormones and derivatives” value is reported as “lowest IC50 values”. For the same molecule, in test [2] (oTR (150 mg/kg)-treated group), the “expression of cleaved caspase-3” value was “significantly increased”. In test [2] (setting [3]), the ERK expression result was “significant increase”; the “p-AKT and AKT expressions” value is listed as “no significant changes”; the p-ERK expression entry is listed as “significant decrease”.

For the origin of these results see patent US20230241088A1, “COMPOSITION FOR PREVENTING OR TREATING LUNG CANCER COMPRISING ORTHO-TOPOLIN RIBOSIDE AS ACTIVE INGREDIENT” (CHUNG-ANG UNIVERSITY INDUSTRY-ACADEMY COOPERATION FOUNDATION, priority 2022, published 2023).
